Data published in patent publication US5409937A, “Hexahydrofuro(2,3-b)furans as PAF antagonists” (British Biotech Pharmaceuticals Limited, priority 1991, dated 1995).
pIC50: −log10 of the molar value.

Target: T1, PAF receptor (Homo sapiens, UniProt P25105)
T1 construct: washed human platelet membranes; from tissue; host or cells: human platelets (platelet concentrates from a hospital blood bank), lysed washed membranes
Experiment: Inhibition of [^3 H]-PAF binding to washed human platelet membranes
Conditions: 0.5 nM [^3 H]-PAF, 1 hour at 0° C., pH 7.0, 0.25% BSA
Protocol: Inhibition of [^3 H]-PAF binding to washed human platelet membranes
In common with the compounds of the invention (general formula I) those of Examples 1-13 it PAF-induced functions at both cellular and tissue levels by inhibition of PAF binding to its specific receptor site. The inhibition of [^3 H]-PAF binding to washed human platelet membranes by representative compounds was determined by isotopic labelling and filtration techniques. Platelet concentrates were obtained from a hospital blood bank. These platelet concentrates (500-2500 ml.) were centrifuged at 800 rpm for 10 minutes in a SORVALL RC3B centrifuge to remove the red blood cells present. (The word SORVALL is a trade mark.) The supenatant was subsequently centrifuged at 3,000 rpm in a SORVALL RC3B centrifuge to pellet the platelets present. The platelet rich pellets were resuspended in a minimum volume of buffer (150 mM NaCl, 10 mM Tris, 2 mM EDTA, pH 7.5) and layered onto Ficoll-Paque gradients, 9 ml platelet concentrate to 2 ml Ficoll, and centrifuged at 1,900 rpm for 15 minutes in a SORVALL RT6000 centrifuge. This step removes the residual red blood cells and other nonspecific material such as lymphocytes from the preparation. The platelets which form a band between the plasma and the Ficoll were removed, resuspended in the above buffer and centrifuged at 3,000 rpm for 10 minutes in a SORVALL RT6000 centrifuge. […]
The assay was conducted by preparing a series of Tris-buffered solutions of the selected antagonist of predetermined concentrations. […] Each washed residue was dried under vacuum on a sampling manifold and placed into vials containing 20 ml of OPTIPHASE MP scintillation fluid and the radioactivity counted in a liquid scintillation counter. (The word OPTIPHASE is a trade mark.) Defining the counts for total binding with antagonist from a test sample as "TBA"; the counts for total binding from the control sample C1 as "TB"; and the counts for nonspecific binding from the control sample C2 as "NSB", the percent inhibition of each test antagonist can be determined by the following equation: […]

T1 sequence (P25105 whole entry): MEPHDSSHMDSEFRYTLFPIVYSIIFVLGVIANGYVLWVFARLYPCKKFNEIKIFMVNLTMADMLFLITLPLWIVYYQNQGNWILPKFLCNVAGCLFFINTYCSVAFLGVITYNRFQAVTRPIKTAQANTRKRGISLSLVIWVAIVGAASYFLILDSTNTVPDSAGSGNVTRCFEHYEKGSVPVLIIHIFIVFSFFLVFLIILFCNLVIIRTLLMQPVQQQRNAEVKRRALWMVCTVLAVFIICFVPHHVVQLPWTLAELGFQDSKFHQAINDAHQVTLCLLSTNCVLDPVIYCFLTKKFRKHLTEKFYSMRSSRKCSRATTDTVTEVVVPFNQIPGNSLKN

`Cc1nc2ccccc2n1C[C@H]1C[C@@H]2C[C@@H](c3ccc(F)cc3)O[C@@H]2O1` (relative stereo) [1(d), (2R*, 3aS*, 5S*, 6aR*)-5-(4-Fluorophenyl)-2-(1H-2-methylbenzimidazol-1-ylmethyl)hexahydrofuro[2,3-b]furan] was tested. Which pIC50 did it give?
The pIC50 was 5.10.

With `Cc1nc2ccccc2n1C[C@H]1C[C@@H]2C[C@H](c3ccc(F)cc3)O[C@@H]2O1` (relative stereo) [1(e), (2R*, 3aS*, 5R*, 6aR*)-5-(4-fluorophenyl)-2-(1H-2-methylbenzimidazol-1-ylmethyl)hexahydrofuro[2,3-b]furan] as the compound, how does the pIC50 read?
The pIC50 was 6.35.

With `Cc1nc2cnccc2n1C[C@H]1C[C@@H]2C[C@@H](c3ccc(F)cc3)O[C@@H]2O1` (relative stereo) [Example 2, 5-(4-Fluorophenyl)-2-(1H-2-methylimidazo[4,5-c]pyrid-1-ylmethyl)hexahydrofuro[2,3-b]furan] as the compound, how does the pIC50 read?
Its pIC50 is 6.62.
